Source: ChEMBL document CHEMBL1201862, “PubChem BioAssay data set” (2004)
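Protocol summary: plate cells (96-well), add compound at 5 concentrations, incubate 48 h, interpolate endpoints linearly. GI50 marks 50% less growth.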 The source made the active and inactive calls. No stated cut-off is given here; in the data, active = GI50 up to about 1.1 µM and inactive = higher.

How the values were obtained:
Assay in all cases: NCI anticancer screen, dose series, 48 h
U-251 = system: U-251
SNB-19 = system: SNB-19
OVCAR-8 = system: OVCAR-8
CCRF-CEM = system: CCRF-CEM
UACC-62 = system: UACC-62
NCI-H460 = system: NCI-H460
SK-OV-3 = system: SK-OV-3
SN12C = system: SN12C
NCI-H23 = system: NCI-H23
SF-539 = system: SF-539
Malme-3M = system: Malme-3M
SF-295 = system: SF-295
OVCAR-4 = system: OVCAR-4
HCT-116 = system: HCT-116
RXF 393 = system: RXF 393

Measured: GI50

N#C/C(=C\c1ccc(O)c(O)c1)C(N)=S [TYRPHOSTIN 47]
inactive: U-251 70.5 µM | SNB-19 > 70.3 µM | OVCAR-8 > 100 µM | CCRF-CEM 9.55 µM | UACC-62 81.5 µM | NCI-H460 45.9 µM | SK-OV-3 > 100 µM | SN12C > 100 µM | NCI-H23 64 µM | SF-539 > 94.4 µM | Malme-3M > 100 µM | SF-295 82.8 µM | OVCAR-4 > 100 µM | HCT-116 50.2 µM

Cc1ccc(-c2c(N)[n+]([O-])c3ccccc3[n+]2[O-])cc1
inactive: U-251 14.3 µM | SNB-19 12.7 µM | OVCAR-8 23.4 µM | CCRF-CEM 47.4 µM | UACC-62 7.18 µM | NCI-H460 18.7 µM | SK-OV-3 21.2 µM | SN12C 10.6 µM | NCI-H23 5 µM | SF-539 11 µM | Malme-3M 3.47 µM | SF-295 20 µM | OVCAR-4 17.3 µM

CC1OC(n2cc(I)c(=O)[nH]c2=O)C=CC1=O (stereo not given)
inactive: U-251 14.4 µM | SNB-19 17.7 µM | OVCAR-8 17.1 µM | CCRF-CEM 2.43 µM | UACC-62 17.2 µM | NCI-H460 18.8 µM | SK-OV-3 29.2 µM | SN12C 18.7 µM | NCI-H23 17 µM | SF-539 14.1 µM | Malme-3M 14.9 µM | SF-295 18.5 µM | OVCAR-4 16.3 µM | HCT-116 11.8 µM

CCOC(=O)C(C(=O)OCC)=C1N[C@H](C(=O)OCC)CS1
inactive: U-251 > 100 µM | SNB-19 > 100 µM | RXF 393 > 100 µM | OVCAR-8 > 100 µM | CCRF-CEM > 100 µM | UACC-62 > 100 µM | NCI-H460 > 100 µM | SN12C > 100 µM | NCI-H23 > 100 µM | SF-539 > 100 µM | Malme-3M > 100 µM | SF-295 > 100 µM | OVCAR-4 > 100 µM | HCT-116 > 100 µM

CN(C(=N)c1ccccc1)c1ccccc1
inactive: U-251 > 100 µM | SNB-19 > 100 µM | OVCAR-8 > 100 µM | CCRF-CEM > 100 µM | UACC-62 > 100 µM | SK-OV-3 > 100 µM | SN12C > 100 µM | NCI-H23 > 100 µM | SF-539 > 100 µM | SF-295 > 100 µM | OVCAR-4 > 100 µM | HCT-116 > 100 µM

COc1ccc2c(CN3CCCCC3CO)cc3cc(OC)c(OC)cc3c2c1 (stereo not given)
inactive: U-251 5.85 µM | SNB-19 4.04 µM | RXF 393 6.65 µM | OVCAR-8 4.42 µM | CCRF-CEM 3.56 µM | UACC-62 10.4 µM | SK-OV-3 14.6 µM | SN12C 6.25 µM | NCI-H23 3.81 µM | SF-539 4.02 µM | Malme-3M 4.63 µM | SF-295 3.02 µM | HCT-116 1.75 µM

COc1cc2c(cc1OC)/C(=C\c1ccccc1N)C(=O)OC2
inactive: U-251 18.5 µM | SNB-19 16.7 µM | RXF 393 3.79 µM | OVCAR-8 > 10 µM | CCRF-CEM 2.05 µM | UACC-62 16.3 µM | NCI-H460 14.7 µM | SK-OV-3 27.7 µM | SN12C 13.2 µM | NCI-H23 16.1 µM | SF-539 15.7 µM | Malme-3M 13.9 µM | SF-295 15.1 µM | OVCAR-4 14.9 µM

O=C(CSc1nnc(Cc2ccccc2)o1)Nc1cccc(Cl)c1
inactive: U-251 > 100 µM | SNB-19 > 100 µM | RXF 393 > 100 µM | OVCAR-8 > 100 µM | CCRF-CEM 71 µM | NCI-H460 > 100 µM | SK-OV-3 > 100 µM | SN12C 97.1 µM | NCI-H23 66.2 µM | SF-539 > 100 µM | Malme-3M 63.7 µM | SF-295 68.7 µM | OVCAR-4 51.2 µM | HCT-116 > 100 µM

Cc1cc(=O)n2c3c(c4c(cc13)c(CO)cc(=O)n4C)OC2
inactive: U-251 6.14 µM | SNB-19 10.5 µM | OVCAR-8 6.67 µM | CCRF-CEM 9.46 µM | UACC-62 12.5 µM | NCI-H460 18 µM | SK-OV-3 20 µM | SN12C 12.9 µM | NCI-H23 13.5 µM | SF-539 7.73 µM | Malme-3M 8.65 µM | SF-295 30.3 µM | OVCAR-4 17.5 µM | HCT-116 4.45 µM

CC1(c2ccccc2)CC(c2ccccc2)=NO1 (stereo not given)
inactive: U-251 > 100 µM | SNB-19 > 100 µM | OVCAR-8 > 100 µM | CCRF-CEM > 100 µM | UACC-62 > 100 µM | NCI-H460 > 100 µM | SK-OV-3 > 100 µM | SN12C > 100 µM | NCI-H23 > 100 µM | SF-539 > 100 µM | Malme-3M > 100 µM | SF-295 > 100 µM | OVCAR-4 > 100 µM | HCT-116 > 100 µM

CCOC(=O)C1(c2ccccc2)CCC(=O)CC1
inactive: U-251 > 100 µM | SNB-19 > 100 µM | RXF 393 > 100 µM | OVCAR-8 > 100 µM | CCRF-CEM > 100 µM | UACC-62 > 100 µM | NCI-H460 > 100 µM | SK-OV-3 > 100 µM | SN12C > 100 µM | NCI-H23 > 100 µM | Malme-3M > 100 µM | SF-295 > 100 µM | OVCAR-4 > 100 µM | HCT-116 > 100 µM

COC(=O)C1=CC2C(=O)OC1C1C(=O)NC(=O)C21 (stereo not given)
inactive: U-251 > 100 µM | SNB-19 > 100 µM | OVCAR-8 > 100 µM | CCRF-CEM > 100 µM | UACC-62 > 100 µM | NCI-H460 > 100 µM | SK-OV-3 > 100 µM | SN12C > 100 µM | NCI-H23 > 100 µM | SF-539 > 100 µM | Malme-3M > 100 µM | SF-295 > 100 µM | OVCAR-4 60.4 µM | HCT-116 > 100 µM

CC1=C(c2cc(C(=O)Nc3nccs3)nc(NC#N)n2)Sc2ccccc2N1
inactive: U-251 > 100 µM | SNB-19 > 100 µM | OVCAR-8 > 100 µM | CCRF-CEM 79.1 µM | UACC-62 > 100 µM | NCI-H460 > 100 µM | SN12C > 100 µM | NCI-H23 > 100 µM | SF-539 > 100 µM | Malme-3M > 100 µM | SF-295 > 100 µM | OVCAR-4 > 100 µM | HCT-116 > 100 µM

COC(=O)CC(CC(=O)C(=O)OC)C(=O)OC (stereo not given)
inactive: U-251 > 100 µM | SNB-19 > 100 µM | RXF 393 > 100 µM | OVCAR-8 > 100 µM | CCRF-CEM > 100 µM | UACC-62 > 100 µM | NCI-H460 > 100 µM | SK-OV-3 > 100 µM | SN12C > 100 µM | NCI-H23 > 100 µM | SF-539 > 100 µM | Malme-3M > 100 µM | SF-295 > 100 µM | HCT-116 > 100 µM

O=C(CSc1nnc(-c2ccc(/N=C\c3ccc(Cl)cc3)cc2)o1)Nc1ccccc1Cl
inactive: U-251 > 100 µM | SNB-19 > 100 µM | RXF 393 > 100 µM | OVCAR-8 > 100 µM | CCRF-CEM > 100 µM | UACC-62 > 100 µM | NCI-H460 > 100 µM | SK-OV-3 > 100 µM | SN12C > 10 µM | NCI-H23 > 100 µM | Malme-3M > 100 µM | SF-295 > 100 µM | OVCAR-4 > 100 µM | HCT-116 > 100 µM
